This note sets out measurements from patent publication US7183411B2, “Naphthol, quinoline and isoquinoline-derived urea modulators of vanilloid VR1 receptor” (Janssen Pharmaceutica N.V., priority 2002, dated 2007).

Assay [1] concerns the target T1, human VR1 (Homo sapiens, UniProt Q8NER1).
T1 construct: expressed in transfected cells; host or cells: HEK293
Briefly: Broadly stimulated recombinant human VR1 functional assay (Ca2+ influx, FLIPR). The class given is cell-based.

For assay [2], the target named is recombinant rat VR1 (rVR1/HEK293) (Rattus norvegicus, UniProt O35433). Briefly: Broadly stimulated recombinant rat VR1 functional assay (Ca2+ influx, FLIPR). The settings on record: for IC50: recombinant rat VR1, Ca2+ influx.
recombinant rat VR1 (rVR1/HEK293), sequence (O35433 whole entry): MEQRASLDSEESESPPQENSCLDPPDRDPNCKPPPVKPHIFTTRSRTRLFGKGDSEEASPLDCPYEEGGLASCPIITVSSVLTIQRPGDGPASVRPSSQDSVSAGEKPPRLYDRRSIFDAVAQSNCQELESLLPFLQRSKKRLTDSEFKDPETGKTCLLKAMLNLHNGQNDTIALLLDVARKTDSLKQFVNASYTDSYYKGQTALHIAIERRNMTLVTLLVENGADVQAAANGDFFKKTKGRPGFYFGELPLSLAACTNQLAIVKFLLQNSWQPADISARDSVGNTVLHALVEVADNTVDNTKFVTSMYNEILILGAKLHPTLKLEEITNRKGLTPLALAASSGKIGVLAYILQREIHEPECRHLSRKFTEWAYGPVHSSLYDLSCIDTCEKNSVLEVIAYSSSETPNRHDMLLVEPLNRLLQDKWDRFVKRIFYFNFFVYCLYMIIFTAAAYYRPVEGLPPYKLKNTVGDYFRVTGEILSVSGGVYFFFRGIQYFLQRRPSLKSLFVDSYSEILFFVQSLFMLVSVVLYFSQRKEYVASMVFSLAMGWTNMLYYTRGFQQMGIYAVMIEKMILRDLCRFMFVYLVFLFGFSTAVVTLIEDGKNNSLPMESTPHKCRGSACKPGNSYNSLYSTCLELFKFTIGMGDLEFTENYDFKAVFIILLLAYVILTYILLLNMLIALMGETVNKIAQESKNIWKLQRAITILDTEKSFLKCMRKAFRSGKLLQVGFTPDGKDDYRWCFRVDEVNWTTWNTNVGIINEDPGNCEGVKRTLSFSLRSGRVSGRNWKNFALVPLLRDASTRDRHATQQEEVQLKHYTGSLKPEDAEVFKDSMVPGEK
From the text: In an effort to identify potent and efficacious antagonists at human and rat VR1 that were active under conditions simulating aspects of in vivo inflammation functional assays were developed using FLIPR to determine antagonist activity against endogenous activators and stimuli likely to be present in inflammation. Cell lines were constructed that stably expressed recombinant rat VR1 (rVR1/HEK293). Cells were exposed to various stimuli at their EC80, with the exception of the low pH and DTT stimuli.
These studies were corroborated and further studies were performed to confirm that the phorbol ester effect was not due to direct effects on the channel. […] Cells were challenged with 300 nM PMA (˜EC80) after 3 min in the indicated antagonist.
Cells were challenged with 5–10 mM DTT to stimulate VR1 after 3 min incubation in compound.
We performed assays similar to those described for the human recombinant receptor with the exception that a lower pH was required in the Ca^2+ influx assay at the rat recombinant receptor.
Assay [3] addresses T2, human VR1 vanilloid receptors (Homo sapiens, UniProt Q8NER1).
T2 construct: expressed in transfected cells; host or cells: HEK293
Briefly: [3H] RTX binding assay, hVR1 membranes from transfected HEK293 cells. As to conditions: for Ki: human VR1, read-out: Receptor binding Ki. As for the experimental part: Compounds of the present invention were tested for their ability to inhibit the binding of [^3H] RTX to hVR1 receptors in a [^3H] RTX binding assay as previously described (Zhang, Sui-Po. Improved ligand binding assays for vanilloid receptors. PCT Int. Appl. (2002), 29 pp. CODEN: PIXXD2 WO 0233411 A1 20020425 AN 2002:315209; Grant, Elfrida R.; Dubin, Adrienne E.; Zhang, Sui-Po; Zivin, Robert A.; Zhong, Zhong Simultaneous intracellular calcium and sodium flux imaging in human vanilloid receptor 1 (VR1)-transfected human embryonic kidney cells: a method to resolve ionic dependence of VR1-mediated cell death. Journal of Pharmacology and Experimental Therapeutics (2002), 300(1), 9–17.)
HEK293 cells were transfected with human VR1 vanilloid receptors and washed with Hank's Balanced Salt Solution, dissociated with cell dissociation buffer (Sigma), and then centrifuged at 1000×g for 5 min. Cell pellets were homogenized in cold 20 mM HEPES buffer, pH 7.4, containing 5.8 mM NaCl, 320 mM sucrose, 2 mM MgCl2, 0.75 CaCl2 and 5 mM KCl and centrifuged at 1000×g for 15 min. The resultant supernate was then centrifuged at 40000×g for 15 min. The pelleted membranes were kept in an −80° C. freezer.
Approximately 120 μg protein/ml from membranes were incubated with indicated concentrations of [^3H] RTX in 0.5 ml of the HEPES buffer (pH 7.4) containing 0.25 mg/mL fatty acid-free bovine serum albumin at 37° C. for 60 min. The reaction mixture was then cooled to 4° C., 0.1 mg α1-acid glycoprotein added to each sample and incubated at 4° C. for 15 min. The samples were centrifuged at 18500×g for 15 min. The tip of the microcentrifuge tube containing the pellet was cut off. Bound radioactivity was quantified by scintillation counting. Non-specific binding was tested in the presence of 200 nM unlabeled RTX.

Assay [4] has as its target T1, human VR1. Briefly: Human VR1 functional assay (FLIPR intracellular Ca2+, capsaicin challenge). The class given is cell-based. The settings on record: read-out: In vitro functional assays hIC50 or EC50. As for the experimental part:
The functional activity of the test compounds was determined by measuring changes in intracellular calcium concentration using a Ca^++-sensitive fluorescent dye and FLIPR™ technology.
HEK293 Cells expressing human VR1 were grown on poly-D-lysine coated 96 well black-walled plates (BD 354640) and 2 days later loaded with Fluo-3/AM for 1 hour and subsequently tested for agonist-induced increases in intracellular Ca^2+ levels using FLIPR™ technology. […] EC50 or IC50 values were determined from dose-response studies.

Where [5] appears, read: recombinant human VR1, Ca2+ influx, stimulus 300 nM PMA, read-out: IC50, PKC phosphorylation.
Setting [6] is: recombinant human VR1, Ca2+ influx, stimulus low pH (pH 6.5), read-out: IC50, Low pH.

Like-named read-outs stand apart in the source and are kept apart here.

T1 sequence (Q8NER1 whole entry): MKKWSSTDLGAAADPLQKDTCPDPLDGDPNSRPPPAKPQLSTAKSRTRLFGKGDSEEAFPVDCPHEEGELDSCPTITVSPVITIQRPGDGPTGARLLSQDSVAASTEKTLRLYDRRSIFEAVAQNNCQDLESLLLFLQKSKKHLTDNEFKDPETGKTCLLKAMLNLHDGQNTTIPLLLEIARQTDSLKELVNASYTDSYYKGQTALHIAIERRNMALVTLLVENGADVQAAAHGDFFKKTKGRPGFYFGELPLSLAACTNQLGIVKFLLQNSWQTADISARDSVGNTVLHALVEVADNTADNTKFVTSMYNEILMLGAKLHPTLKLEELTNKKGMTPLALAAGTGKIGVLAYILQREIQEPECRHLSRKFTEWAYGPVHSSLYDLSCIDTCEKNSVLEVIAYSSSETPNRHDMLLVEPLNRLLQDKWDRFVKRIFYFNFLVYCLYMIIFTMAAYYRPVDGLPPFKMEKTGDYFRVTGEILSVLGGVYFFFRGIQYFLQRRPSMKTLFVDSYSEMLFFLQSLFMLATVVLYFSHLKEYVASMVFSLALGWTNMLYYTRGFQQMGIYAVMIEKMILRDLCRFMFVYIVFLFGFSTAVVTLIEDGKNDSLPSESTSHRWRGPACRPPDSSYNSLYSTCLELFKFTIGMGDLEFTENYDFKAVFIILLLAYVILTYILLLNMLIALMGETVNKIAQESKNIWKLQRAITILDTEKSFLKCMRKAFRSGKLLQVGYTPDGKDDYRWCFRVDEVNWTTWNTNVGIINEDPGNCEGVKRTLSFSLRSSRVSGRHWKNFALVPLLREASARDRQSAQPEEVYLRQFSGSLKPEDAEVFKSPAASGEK
T2 sequence (Q8NER1 whole entry): as above

Take `Oc1cc2c(cc1O)CN(C(=S)NCCc1ccc(Cl)cc1)CCC2` [Capsazepine, capsazepine]: the IC50 was 100 to 300 nM in assay [1] (human recombinant receptor, FIG. 1, read-out: potency to inhibit Ca2+ activity induced by the panel of stimuli); 370 nM in assay [1] (recombinant human VR1, Ca2+ influx, PMA at low pH, read-out: IC50, PKC phosphorylation at low pH); 160 nM in assay [1] (setting [5]); 110 nM in assay [1] (setting [6]); 1300 nM in assay [2] (IC50, Anandamide, stimulus anandamide 10 μM); 5000 nM in assay [2] (IC50, Low pH, stimulus low pH (pH 5.9)). Also, the IC50 in assay [2] (IC50, PKC phosphorylation at low pH, PMA at low pH) was determined as 10000 nM; in assay [2] (IC50, PKC phosphorylation, stimulus 300 nM PMA), 10000 nM. What is called Ki is the dissociation constant of the complex between target and ligand, obtained from inhibition or displacement. Take `O=C(NCCc1ccc(Cl)c(Cl)c1)Nc1cccc2cnccc12` [Compound 1]: in assay [3], the Ki stood at 12.6 nM. In assay [4], the IC50 or EC50 was 8 nM. In the same order, the values of `O=C(NCCc1cccc(C(F)(F)F)c1)Nc1cccc2cnccc12` [Compound 2] are 41.2 nM and 19 nM. For the molecule `O=C(NCCc1ccc(Cl)cc1)Nc1cccc2cnccc12` [Compound 3], the Ki in assay [3] was determined as 88.7 nM. Further, the IC50 or EC50 in assay [4] was found to be 36 nM.

Regarding `O=C(NCc1ccc(Cl)c(Cl)c1)Nc1cccc2cnccc12` [Compound 5], the Ki in assay [3] was 8.87 nM. Moreover, the IC50 or EC50 in assay [4] amounted to 4 nM. In the same order, the values of `O=C(NCc1ccc(Cl)cc1)Nc1cccc2cnccc12` [Compound 6] are 31 nM and 5.6 nM. In the same order, the values of `O=C(NCc1cccc(C(F)(F)F)c1)Nc1cccc2cnccc12` [Compound 7] are 22.7 nM and 11 nM. In the same order, the values of `Cc1cc2c(NC(=O)NCc3ccc(Cl)c(Cl)c3)cccc2cn1` [Compound 8] are 12.9 nM and 18 nM. As to `Cc1cc2c(NC(=O)NCc3cccc(C(F)(F)F)c3)cccc2cn1` [Compound 9], in assay [3], the inhibition constant Ki amounted to 39 nM. Further, the IC50 or EC50 in assay [4] was 9.4 nM.

On to `COc1ccc(C(CNC(=O)Nc2cccc3cnccc23)CC2CCCCC2)cc1` (stereo not drawn) [Compound 12], for which, in assay [3], the Ki was found to be 5.62 nM. For the molecule `CC(C)(C)c1ccc(CNC(=O)Nc2cccc3ccc(O)cc23)cc1` [Compound 13], the Ki in assay [3] was 0.12 nM. Further, in assay [4], the IC50 or EC50 was 20 nM.

For the molecule `O=C(NCc1ccc(Cl)cc1)Nc1cccc2ccc(O)cc12` [Compound 14], in assay [3], the inhibition constant (Ki) came out at 3.27 nM. For the same molecule, the IC50 or EC50 in assay [4] was 4.9 nM. As a reminder, the inhibition is the share of the control response that was lost under treatment. For the molecule `O=C(NCc1cccnc1)Nc1cccc2ccc(O)cc12` [Compound 15], the inhibition at 1 µM in assay [3] (human VR1, 1 μM compound, read-out: Receptor binding % Inhibition @ 1 μM) worked out at 11%. Further, the IC50 or EC50 in assay [4] stood at 3700 nM. Consider `O=C(NCc1ccc(OC(F)(F)F)cc1)Nc1cccc2ccc(O)cc12` [Compound 16], for which the inhibition constant Ki in assay [3] turned out to be 0.11 nM. Besides, the IC50 or EC50 in assay [4] is 27 nM.

Turning to `O=C(NCc1ccccc1)Nc1cccc2ccc(O)cc12` [Compound 18], the Ki in assay [3] turned out to be 93.5 nM. The IC50 or EC50 in assay [4] amounted to 45 nM. Take `O=C(NCc1cccc(C(F)(F)F)c1)Nc1cccc2ccc(O)cc12` [Compound 19]: in assay [3], the Ki turned out to be 0.38 nM. The IC50 or EC50 in assay [4] stood at 26 nM. In the same order, the values of `COc1ccc(CCNC(=O)Nc2cccc3cnccc23)cc1` [Compound 21] are 1290 nM and 680 nM. Regarding `O=C(NCc1ccc(OC(F)(F)F)cc1)Nc1cccc2cnccc12` [Compound 22], the inhibition constant (Ki) in assay [3] was 1.28 nM. Also, in assay [4], the IC50 or EC50 is 3.3 nM.

`O=C(NCCc1ccccc1)Nc1cccc2ccc(O)cc12` [Compound 23]: the Ki in assay [3] is 53.5 nM. In the case of `O=C(Nc1cccc2ccc(O)cc12)N(Cc1ccccc1)Cc1ccccc1` [Compound 25], in assay [3], the inhibition constant (Ki) was 3280 nM. Turning to `CN(Cc1ccccc1)C(=O)Nc1cccc2ccc(O)cc12` [Compound 26], the Ki in assay [3] turned out to be 18600 nM. For the same molecule, the IC50 or EC50 in assay [4] was found to be 10000 nM. In the same order, the values of `O=C(NCCc1ccc(Cl)c(Cl)c1)Nc1cccc2ccc(O)cc12` [Compound 27] are 1.22 nM and 97 nM. With `O=C(NCc1ccc(C(F)(F)F)nc1)Nc1cccc2ccc(O)cc12` [Compound 29], the Ki in assay [3] turned out to be 36.1 nM. Besides, the IC50 or EC50 in assay [4] came out at 44 nM. For the molecule `CN(Cc1ccc(Cl)c(Cl)c1)C(=O)Nc1cccc2ccc(O)cc12` [Compound 30], in assay [3], the Ki is 581 nM. `O=C(NCc1ccc(Cl)c(Cl)c1)Nc1cccc2ccc(O)cc12` [Compound 31]: the Ki in assay [3] turned out to be 2.03 nM. Besides, the IC50 or EC50 in assay [4] is 15 nM. For the molecule `O=C(NCc1nc2ccccc2[nH]1)Nc1cccc2ccc(O)cc12` [Compound 32], in assay [3], the inhibition constant Ki came out at 2540 nM. Turning to `CC(C)(C)c1ccc(CCNC(=O)Nc2cccc3cnccc23)cc1` [Compound 35], the Ki in assay [3] turned out to be 1.3 nM. In addition, the IC50 or EC50 in assay [4] stood at 5.8 nM. Take `O=C(NCCc1ccc(C(F)(F)F)cc1)Nc1cccc2cnccc12` [Compound 36]: the Ki in assay [3] came out at 22.4 nM.

With `COc1ccc(CNC(=O)Nc2cccc3cnccc23)cc1` [Compound 37], the Ki in assay [3] amounted to 193 nM. Besides, in assay [4], the IC50 or EC50 came out at 45 nM. In the same order, the values of `O=C(NCCc1ccc(OC(F)(F)F)cc1)Nc1cccc2cnccc12` [Compound 38] are 6.03 nM and 11 nM. `O=C(NCc1ccc(F)c(F)c1)Nc1cccc2ccc(O)cc12` [Compound 42]: in assay [3], the Ki amounted to 7.22 nM.

In the case of `O=C(NCc1ccc(Cl)cc1Cl)Nc1cccc2ccc(O)cc12` [Compound 47], the Ki in assay [3] turned out to be 2.79 nM.

As for `O=C(NCc1cc(C(F)(F)F)cc(C(F)(F)F)c1)Nc1cccc2ccc(O)cc12` [Compound 58], the Ki in assay [3] came out at 5.16 nM. Still for that read-out and setting: the same measure for `O=C(NCc1ccc(C(F)(F)F)cc1)Nc1cccc2cncc(Cl)c12` [Compound 59]: 7340 nM. On to `CN(CC1CCCCC1)c1ccc(CNC(=O)Nc2cnc3ccccc3c2)cc1` [Compound 65], for which, in assay [3], the inhibition constant Ki was found to be 129 nM. The IC50 or EC50 in assay [4] turned out to be 10000 nM. Take `OO` [Compound H2O2, H2O2]: the “EC80 for H2O2-induced Ca2+ flux” value in assay [1] (VR1/HEK cells, species not stated) turned out to be 0.015 % H2O2.

Usually EC50 stands for the concentration giving half of the maximal effect. Regarding `CCCCCCCCCCCCCC(=O)O[C@@H]1[C@@H](C)[C@@]2(O)[C@@H](C=C(CO)C[C@]3(O)C(=O)C(C)=C[C@@H]23)[C@@H]2C(C)(C)[C@]12OC(C)=O` [PMA, phorbol-12-myristate-13-acetate], the EC50 in assay [1] (agonist at human recombinant VR1, read-out: EC50 (increase in intracellular Ca2+)) was 90 nM; in assay [2] (read-out: EC50 (increase in intracellular Ca2+), agonist at rat recombinant VR1) it was 90 nM. Turning to `Cl.Cl.Cl.Cl.Cl.Cl.N.N.N.N.N.N.N.N.N.N.N.N.N.N.[O-2].[O-2].[Ru+3].[Ru+3].[Ru+4]` [Ruthenium Red, ruthenium red], the IC50 in assay [1] (setting [5]) came out at 500 nM; in assay [1] (setting [6]), 500 nM; in assay [2] (read-out: IC50, Anandamide, stimulus anandamide 10 μM), 1860 nM; in assay [2] (read-out: IC50, PKC phosphorylation, stimulus 300 nM PMA), 300 nM. For `CCCCC/C=C\C/C=C\C/C=C\C/C=C\CCCC(=O)NCCO` [anandamide, Anandamide], the EC50 in assay [1] came out at 3000 nM; in assay [2] it was 5000 nM.
